# In patent publication US20060069132A1, “Azolecarboxamide herbicides” (priority 2004, published 2006):
# Assays:
# [1] = test system: corn; experiment: Test B pre-/postemergence herbicide test; format: in vivo, Zea mays; details: for Plant response rating, Corn: preemergence; for Corn plant response rating: postemergence, visual rating, scale 0 (no effect) to 100 (complete control)
# Method in brief: (§1)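 Test chemicals in a non-phytotoxic solvent mixture with surfactant were applied preemergence to seeded species and postemergence to plants 2-18 cm tall (1- to 4-leaf stage); rice and barnyardgrass were also tested in a flooded paddy at the 2-leaf stage. Visual rating versus controls after 13-15 days in greenhouse, scale 0 (no effect) to 100 (complete control).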
# [2] = test system: lambsquarters; experiment: Test B pre-/postemergence herbicide test; format: in vivo, Chenopodium album; details: for Plant response rating, Lambsquarters: preemergence; for Lambsquarters plant response rating: postemergence, visual rating, scale 0 (no effect) to 100 (complete control)
# Method in brief: as §1
# [3] = test system: morningglory; experiment: Test A pre-/postemergence herbicide test; format: in vivo, Ipomoea spp.
# Method in brief: (§2)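 Sandy loam soil given preemergence directed spray; plants at 2 to 10 cm, one- to two-leaf stage, sprayed to runoff postemergence, compounds in non-phytotoxic solvent with surfactant. Injury rated visually versus untreated controls after about ten greenhouse days, 0 (no effect) to 100 (complete control); dash means not tested.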
# [4] = test system: barnyardgrass; experiment: Test A pre-/postemergence herbicide test; format: in vivo, Echinochloa crus-galli
# Method in brief: as §2
# [5] = test system: Surinam grass; experiment: Test B pre-/postemergence herbicide test; format: in vivo, Urochloa decumbens; details: for Plant response rating, Surinam Grass: preemergence; for Surinam Grass plant response rating: postemergence, visual rating, scale 0 (no effect) to 100 (complete control)
# Method in brief: as §1
# [6] = test system: velvetleaf; experiment: Test A pre-/postemergence herbicide test; format: in vivo, Abutilon theophrasti
# Method in brief: as §2
# [7] = test system: rice; experiment: Test B pre-/postemergence herbicide test; format: in vivo, Oryza sativa; details: preemergence, 125 g ai/ha; 0 to 100 scale, 0 is no effect, 100 is complete control
# Method in brief: as §1
# [8] = test system: giant foxtail; experiment: Test B pre-/postemergence herbicide test; format: in vivo, Setaria faberi; details: for Plant response rating, Foxtail, Giant: preemergence; for Foxtail, Giant plant response rating: postemergence, visual rating, scale 0 (no effect) to 100 (complete control)
# Method in brief: as §1
# [9] = test system: velvetleaf; experiment: Test B pre-/postemergence herbicide test; format: in vivo, Abutilon theophrasti; details: for Plant response rating, Velvetleaf: preemergence; for Velvetleaf plant response rating: postemergence, visual rating, scale 0 (no effect) to 100 (complete control)
# Method in brief: as §1
# [10] = test system: large crabgrass; experiment: Test A pre-/postemergence herbicide test; format: in vivo, Digitaria sanguinalis
# Method in brief: as §2
# [11] = test system: blackgrass; experiment: Test B postemergence herbicide test; format: in vivo, Alopecurus myosuroides; details: postemergence, visual rating, scale 0 (no effect) to 100 (complete control)
# Method in brief: (§3)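 Each value is a visual 0–100 response rating taken against controls 13 to 15 days after treatment in the greenhouse. Plants received formulated chemical postemergence at the 1- to 4-leaf stage or, in flooded paddy, at the 2-leaf stage.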
# [12] = test system: wild oat; experiment: Test B postemergence herbicide test; format: in vivo, Avena fatua; details: postemergence, visual rating, scale 0 (no effect) to 100 (complete control)
# Method in brief: (§4)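 Scale 0–100: zero equals no visible effect, 100 complete control, judged by eye relative to controls. Timing: 13 to 15 days in greenhouse post-treatment. Growth stage at spraying: two leaves (paddy) or one to four leaves, 2–18 cm (postemergence).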
# [13] = test system: ducksalad; experiment: Test B flooded paddy test; format: in vivo, Heteranthera limosa; details: 1000 g ai/ha, visual rating, scale 0 to 100 (0 no effect, 100 complete control), 13 to 15 days
# Method in brief: as §3
# [14] = test system: morningglory; experiment: Test B pre-/postemergence herbicide test; format: in vivo, Ipomoea coccinea; details: for Plant response rating, Morningglory: preemergence; for Morningglory plant response rating: postemergence, visual rating, scale 0 (no effect) to 100 (complete control)
# Method in brief: (§5)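 Evaluation is visual, comparing treated with control plants on a scale where 0 means no effect and 100 means full control. Treatments were preemergence, or postemergence on seedlings 2–18 cm tall, and held 13–15 days in the greenhouse.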
# [15] = test system: barnyardgrass; experiment: Test B pre-/postemergence herbicide test; format: in vivo, Echinochloa crus-galli; details: for Plant response rating, Barnyardgrass: preemergence; for Barnyardgrass plant response rating: postemergence, visual rating, scale 0 (no effect) to 100 (complete control)
# Method in brief: as §5
# [16] = test system: giant foxtail; experiment: Test A pre-/postemergence herbicide test; format: in vivo, Setaria faberi
# Method in brief: as §2
# [17] = test system: large crabgrass; experiment: Test B pre-/postemergence herbicide test; format: in vivo, Digitaria sanguinalis; details: for Plant response rating, Crabgrass, Large: preemergence; for Crabgrass, Large plant response rating: postemergence, visual rating, scale 0 (no effect) to 100 (complete control)
# Method in brief: as §1
# [18] = test system: pigweed; experiment: Test B pre-/postemergence herbicide test; format: in vivo, Amaranthus retroflexus; details: for Plant response rating, Pigweed: preemergence; for Pigweed plant response rating: postemergence, visual rating, scale 0 (no effect) to 100 (complete control)
# Method in brief: as §1
# [19] = test system: small flower umbrella sedge; experiment: Test B flooded paddy test; format: in vivo, Cyperus difformis; details: 1000 g ai/ha, visual rating, scale 0 to 100 (0 no effect, 100 complete control), 13 to 15 days
# Method in brief: as §3
# [20] = test system: rice; experiment: Test B flooded paddy test; format: in vivo, Oryza sativa; details: 1000 g ai/ha, visual rating, scale 0 to 100 (0 no effect, 100 complete control), 13 to 15 days
# Method in brief: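 Paddy species grown to the 2-leaf stage under flooding; blackgrass sprayed postemergence at 2–18 cm (1- to 4-leaf stage). Plants kept in a greenhouse for 13 to 15 days, then visually rated against controls on 0 (no effect) to 100 (complete control).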
# [21] = test system: cocklebur; experiment: Test B pre-/postemergence herbicide test; format: in vivo, Xanthium strumarium; details: for Plant response rating, Cocklebur: preemergence; for Cocklebur plant response rating: postemergence, visual rating, scale 0 (no effect) to 100 (complete control)
# Method in brief: as §5
# [22] = test system: wheat; experiment: Test B postemergence herbicide test; format: in vivo, Triticum aestivum; set-up: key to Wheat plant response rating: 0 = no effect, 100 = complete control; details: postemergence, visual rating, scale 0 (no effect) to 100 (complete control)
# Method in brief: as §4
# [23] = test system: redroot pigweed; experiment: Test A pre-/postemergence herbicide test; format: in vivo, Amaranthus retroflexus
# Method in brief: as §2
# [24] = test system: barnyardgrass; experiment: Test B flooded paddy test; format: in vivo, Echinochloa crus-galli; details: 1000 g ai/ha, visual rating, scale 0 to 100 (0 no effect, 100 complete control), 13 to 15 days
# Method in brief: as §3
# [25] = 500 g ai/ha, visual rating 0-100, 0 no effect, 100 complete control
# [26] = 125 g ai/ha, 0 to 100 scale, 0 is no effect, 100 is complete control
# [27] = Postemergence, 500 g ai/ha, 0 to 100 scale, 0 no effect, 100 complete control
# [28] = Postemergence, 2000 g ai/ha, 0 to 100 scale, 0 no effect, 100 complete control
# [29] = Preemergence, 500 g ai/ha, visual rating, 0 to 100 scale (0 no effect, 100 complete control)
# [30] = Preemergence, 2000 g ai/ha, visual rating, 0 to 100 scale (0 no effect, 100 complete control)
# [31] = preemergence, 500 g ai/ha, visual injury, 0 to 100 scale (0 no effect, 100 complete control)
structure (smiles),measurement,setting,value
Cn1nc(C(C)(C)C)cc1C(=O)Nc1cccc(C#N)c1 [Compound 121],"Plant response rating, Corn",[1]; [25],0
same,Corn plant response rating,[1]; 125 g ai/ha,0
same,Corn plant response rating,[1]; 500 g ai/ha,10
same,"Plant response rating, Corn",[1]; [26],0
same,"Plant response rating, Lambsquarters",[2]; [25],100
same,Lambsquarters plant response rating,[2]; 125 g ai/ha,80
same,Lambsquarters plant response rating,[2]; 500 g ai/ha,80
same,"Plant response rating, Lambsquarters",[2]; [26],70
same,Morningglory plant response rating,[3]; [27],20
same,"Plant response rating, Morningglory",[3]; [28],20
same,Morningglory plant response rating,[3]; [29],5
same,Morningglory plant response rating,[3]; [30],20
same,Barnyardgrass plant response rating,[4]; [27],10
same,"Plant response rating, Barnyardgrass",[4]; [28],35
same,Barnyardgrass plant response rating,[4]; [29],15
same,Barnyardgrass plant response rating,[4]; [30],40
same,"Plant response rating, Surinam Grass",[5]; [25],20
same,Surinam Grass plant response rating,[5]; 125 g ai/ha,10
same,Surinam Grass plant response rating,[5]; 500 g ai/ha,30
same,"Plant response rating, Surinam Grass",[5]; [26],0
same,Velvetleaf plant response rating,[6]; [27],10
same,"Plant response rating, Velvetleaf",[6]; [28],15
same,Velvetleaf plant response rating,[6]; [30],30
same,Velvetleaf plant response rating,[6]; [31],10
same,"Plant response rating, Rice",[7],0
same,"Plant response rating, Foxtail, Giant",[8]; [25],70
same,"Foxtail, Giant plant response rating",[8]; 125 g ai/ha,0
same,"Foxtail, Giant plant response rating",[8]; 500 g ai/ha,10
same,"Plant response rating, Foxtail, Giant",[8]; [26],0
same,"Plant response rating, Velvetleaf",[9]; [25],20
same,Velvetleaf plant response rating,[9]; 125 g ai/ha,10
same,Velvetleaf plant response rating,[9]; 500 g ai/ha,20
same,"Plant response rating, Velvetleaf",[9]; [26],0
same,"Crabgrass, Large plant response rating",[10]; [27],10
same,"Plant response rating, Crabgrass, Large",[10]; [28],10
same,"Crabgrass, Large plant response rating",[10]; [29],10
same,"Crabgrass, Large plant response rating",[10]; [30],75
same,Blackgrass plant response rating,[11]; 125 g ai/ha,0
same,Blackgrass plant response rating,[11]; 500 g ai/ha,0
same,"Oat, Wild plant response rating",[12]; 125 g ai/ha,10
same,"Oat, Wild plant response rating",[12]; 500 g ai/ha,30
same,Ducksalad plant response rating,[13],0
same,"Plant response rating, Morningglory",[14]; [25],20
same,Morningglory plant response rating,[14]; 125 g ai/ha,0
same,Morningglory plant response rating,[14]; 500 g ai/ha,0
same,"Plant response rating, Morningglory",[14]; [26],0
same,"Plant response rating, Barnyardgrass",[15]; [25],80
same,Barnyardgrass plant response rating,[15]; 125 g ai/ha,0
same,Barnyardgrass plant response rating,[15]; 500 g ai/ha,0
same,"Plant response rating, Barnyardgrass",[15]; [26],0
same,"Foxtail, Giant plant response rating",[16]; [27],15
same,"Plant response rating, Foxtail, Giant",[16]; [28],25
same,"Foxtail, Giant plant response rating",[16]; [29],25
same,"Foxtail, Giant plant response rating",[16]; [30],75
same,"Plant response rating, Crabgrass, Large",[17]; [25],50
same,"Crabgrass, Large plant response rating",[17]; 125 g ai/ha,10
same,"Crabgrass, Large plant response rating",[17]; 500 g ai/ha,10
same,"Plant response rating, Crabgrass, Large",[17]; [26],0
same,"Plant response rating, Pigweed",[18]; [25],100
same,Pigweed plant response rating,[18]; 125 g ai/ha,30
same,Pigweed plant response rating,[18]; 500 g ai/ha,50
same,"Plant response rating, Pigweed",[18]; [26],80
same,"Sedge, Umbrella plant response rating",[19],0
same,Rice plant response rating,[20],0
same,"Plant response rating, Cocklebur",[21]; [25],0
same,Cocklebur plant response rating,[21]; 125 g ai/ha,10
same,Cocklebur plant response rating,[21]; 500 g ai/ha,20
same,"Plant response rating, Cocklebur",[21]; [26],0
same,Wheat plant response rating,[22]; 125 g ai/ha,0
same,Wheat plant response rating,[22]; 500 g ai/ha,0
same,Pigweed plant response rating,[23]; [27],90
same,"Plant response rating, Pigweed",[23]; [28],100
same,Pigweed plant response rating,[23]; [30],100
same,Pigweed plant response rating,[23]; [31],95
same,Barnyardgrass plant response rating,[24],0
